Data reported in PubChem BioAssay AID2060601 (Molecular Pharmacology Branch, DTP, NCI, 2025).

Test system: 874868-142-R-J2-PDC complex spheroids, growth % test/control
Assay: Anticancer human tumor 874868-142-R-J2-PDC patient-derived head and neck squamous carcinoma cell line growth inhibition [CLK]
Conditions: for IC50: curve of first compound; for viability, T/C: stronger effect = lower value
Method in brief: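 Multi-cell-type spheroids combined patient-derived tumor cells with HUVEC endothelial cells and human mesenchymal stem cells. Paired agents were dosed in half-log steps down from about clinical Cmax, or from 10 microM where Cmax was unknown.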

[1] = second compound 0.0316 µM, first compound 0.0316 µM
[2] = second compound 0.0316 µM, first compound 0.1 µM
[3] = second compound 0.0316 µM, first compound 0.316 µM
[4] = second compound 0.0316 µM, first compound 1 µM
[5] = second compound 0.0316 µM, first compound 3.16 µM
[6] = second compound 0.0316 µM, first compound 10 µM
[7] = second compound 0.1 µM, first compound 0.0316 µM
[8] = second compound 0.1 µM, first compound 0.1 µM
[9] = second compound 0.1 µM, first compound 0.316 µM
[10] = second compound 0.1 µM, first compound 1 µM
[11] = second compound 0.1 µM, first compound 3.16 µM
[12] = second compound 0.1 µM, first compound 10 µM
[13] = second compound 0.316 µM, first compound 0.0316 µM
[14] = second compound 0.316 µM, first compound 0.1 µM
[15] = second compound 0.316 µM, first compound 0.316 µM
[16] = second compound 0.316 µM, first compound 1 µM
[17] = second compound 0.316 µM, first compound 3.16 µM
[18] = second compound 0.316 µM, first compound 10 µM
[19] = second compound 1 µM, first compound 0.0316 µM
[20] = second compound 1 µM, first compound 0.1 µM
[21] = second compound 1 µM, first compound 0.316 µM
[22] = second compound 1 µM, first compound 1 µM
[23] = second compound 1 µM, first compound 3.16 µM
[24] = second compound 1 µM, first compound 10 µM
[25] = second compound 3.16 µM, first compound 0.0316 µM
[26] = second compound 3.16 µM, first compound 0.1 µM
[27] = second compound 3.16 µM, first compound 0.316 µM
[28] = second compound 3.16 µM, first compound 1 µM
[29] = second compound 3.16 µM, first compound 3.16 µM
[30] = second compound 3.16 µM, first compound 10 µM
[31] = second compound 10 µM, first compound 0.0316 µM
[32] = second compound 10 µM, first compound 0.1 µM
[33] = second compound 10 µM, first compound 0.316 µM
[34] = second compound 10 µM, first compound 1 µM
[35] = second compound 10 µM, first compound 3.16 µM
[36] = second compound 10 µM, first compound 10 µM
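Further: spheroids exposed to the compounds for 7 days.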
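Wherever viability, T/C is given: 100% = DMSO vehicle control viability.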

For `CC(CO)NC(=O)c1cc(-c2ccc(Cl)cc2)nn(-c2cnn(C)c2)c1=O` (stereo unspecified) + CN1CCN(c2cc(C(=O)Nc3cc4cc(-c5cnn(C)c5)ccc4cn3)ccn2)CC1, the IC50 (second compound 0.0316 µM) was > 10 µM, the IC50 (second compound 0.1 µM) was > 10 µM and the IC50 (second compound 0.316 µM) was < 0.0316 µM. The IC50 (second compound 1 µM) was < 0.0316 µM, the IC50 (second compound 3.16 µM) was < 0.0316 µM and the IC50 (second compound 10 µM) was < 0.0316 µM. For the same compound, the viability, T/C [1] was 105%, the viability, T/C [2] was 99.2% and the viability, T/C [3] was 82.4%. It also gave a viability, T/C [4] of 92.8%, a viability, T/C [5] of 93% and a viability, T/C [6] of 83.8%. The viability, T/C [7] was 76.1%, the viability, T/C [8] was 72.2% and the viability, T/C [9] was 65.8%. It also gave a viability, T/C [10] of 67.9%, a viability, T/C [11] of 68.5% and a viability, T/C [12] of 77.2%. It also gave a viability, T/C [13] of 19.4%, a viability, T/C [14] of 24.8% and a viability, T/C [15] of 20.6%. The viability, T/C [16] was 19.1%, the viability, T/C [17] was 20.2% and the viability, T/C [18] was 29.1%. It also gave a viability, T/C [19] of 0.42%, a viability, T/C [20] of 5.08% and a viability, T/C [21] of 2.66%. The viability, T/C [22] was 0.31%, the viability, T/C [23] was 0.63% and the viability, T/C [24] was 1.19%. For the same compound, the viability, T/C [25] was 0.31%, the viability, T/C [26] was 0.77% and the viability, T/C [27] was 0.29%. It also gave a viability, T/C [28] of 0.32%, a viability, T/C [29] of 3.04% and a viability, T/C [30] of 2.75%. The viability, T/C [31] was 0.18%, the viability, T/C [32] was 0.21% and the viability, T/C [33] was 2.19%. The viability, T/C [34] was 0.22%, the viability, T/C [35] was 3.03% and the viability, T/C [36] was 0.28%.

With `CC(Nc1ccc2c(c1)OCCn1cc(N3C(=O)OCC3C(F)F)nc1-2)C(N)=O` (stereo unspecified) + CN1CCN(c2cc(C(=O)Nc3cc4cc(-c5cnn(C)c5)ccc4cn3)ccn2)CC1 the IC50 (second compound 0.0316 µM) was 0.0894 µM, the IC50 (second compound 0.1 µM) was 0.0755 µM and the IC50 (second compound 0.316 µM) was < 0.0316 µM. The IC50 (second compound 1 µM) was < 0.0316 µM, the IC50 (second compound 3.16 µM) was < 0.0316 µM and the IC50 (second compound 10 µM) was < 0.0316 µM. The viability, T/C [1] was 69.5%, the viability, T/C [2] was 46.7% and the viability, T/C [3] was 33.7%. The viability, T/C [4] was 22.6%, the viability, T/C [5] was 13.8% and the viability, T/C [6] was 12.3%. The viability, T/C [7] was 78.7%, the viability, T/C [8] was 36.1% and the viability, T/C [9] was 30.2%. The viability, T/C [10] was 20.7%, the viability, T/C [11] was 12.8% and the viability, T/C [12] was 12%. The viability, T/C [13] was 19.3%, the viability, T/C [14] was 15.2% and the viability, T/C [15] was 17.8%. The viability, T/C [16] was 8.67%, the viability, T/C [17] was 12.4% and the viability, T/C [18] was 8.37%. The viability, T/C [19] was 0.31%, the viability, T/C [20] was 1.8% and the viability, T/C [21] was 1.32%. For the same compound, the viability, T/C [22] was 0.15%, the viability, T/C [23] was 1.54% and the viability, T/C [24] was 0.14%. For the same compound, the viability, T/C [25] was 0.28%, the viability, T/C [26] was 3.06% and the viability, T/C [27] was 0.36%. For the same compound, the viability, T/C [28] was 0.11%, the viability, T/C [29] was 0.47% and the viability, T/C [30] was 0.23%. It also gave a viability, T/C [31] of 0.13%, a viability, T/C [32] of 0.11% and a viability, T/C [33] of 1.27%. For the same compound, the viability, T/C [34] was 0.14%, the viability, T/C [35] was 0.18% and the viability, T/C [36] was 0.2%.

`COc1c(OCCCN2CCOCC2)ccc2c3n(c(=NC(=O)c4cnc(N)nc4)nc12)CCN3` + CN1CCN(c2cc(C(=O)Nc3cc4cc(-c5cnn(C)c5)ccc4cn3)ccn2)CC1 was tested, and the IC50 (second compound 0.0316 µM) was 0.00748 µM, the IC50 (second compound 0.1 µM) was 0.0057 µM and the IC50 (second compound 0.316 µM) was < 0.00316 µM. For the same compound, the IC50 (second compound 1 µM) was < 0.00316 µM, the IC50 (second compound 3.16 µM) was < 0.00316 µM and the IC50 (second compound 10 µM) was < 0.00316 µM. The viability, T/C (second compound 0.0316 µM, first compound 0.00316 µM) was 66.7%, the viability, T/C (second compound 0.0316 µM, first compound 0.01 µM) was 44.8% and the viability, T/C [1] was 21.2%. For the same compound, the viability, T/C [2] was 11.6%, the viability, T/C [3] was 5.06% and the viability, T/C [4] was 3.88%. For the same compound, the viability, T/C (second compound 0.1 µM, first compound 0.00316 µM) was 57.3%, the viability, T/C (second compound 0.1 µM, first compound 0.01 µM) was 42.7% and the viability, T/C [7] was 23.6%. For the same compound, the viability, T/C [8] was 9.84%, the viability, T/C [9] was 5.07% and the viability, T/C [10] was 5.77%. For the same compound, the viability, T/C (second compound 0.316 µM, first compound 0.00316 µM) was 19.1%, the viability, T/C (second compound 0.316 µM, first compound 0.01 µM) was 18.6% and the viability, T/C [13] was 10.7%. It also gave a viability, T/C [14] of 4.09%, a viability, T/C [15] of 3.08% and a viability, T/C [16] of 1.68%. For the same compound, the viability, T/C (second compound 1 µM, first compound 0.00316 µM) was 0.4%, the viability, T/C (second compound 1 µM, first compound 0.01 µM) was 0.24% and the viability, T/C [19] was 0.24%. The viability, T/C [20] was 0.07%, the viability, T/C [21] was 0.34% and the viability, T/C [22] was 0.22%. The viability, T/C (second compound 3.16 µM, first compound 0.00316 µM) was 0.17%, the viability, T/C (second compound 3.16 µM, first compound 0.01 µM) was 0.16% and the viability, T/C [25] was 0.17%. It also gave a viability, T/C [26] of 0.36%, a viability, T/C [27] of 0.16% and a viability, T/C [28] of 0.19%. For the same compound, the viability, T/C (second compound 10 µM, first compound 0.00316 µM) was 0.07%, the viability, T/C (second compound 10 µM, first compound 0.01 µM) was 0.15% and the viability, T/C [31] was 1.27%. It also gave a viability, T/C [32] of 0.4%, a viability, T/C [33] of 0.14% and a viability, T/C [34] of 0.18%.
